Test system: T1, Rab3a-a-Syn fusion construct
T1 construct: single-chain fusion: 6-His-tag, Rab3a 15-186 (C137A, wild-type Q81), GSGS linker, alpha-synuclein 101-140 (not phosphorylated); pET15b, E. coli; with Alpha-synuclein
Test: malachite green phosphate release, Michaelis-Menten fit
Format: biochemical
Details: pH 7.5, 20 mM Hepes, 2 mM MgCl2, 1 mM DTT, 37 °C; a-Syn C-terminal tail covalently fused; no free a-Syn, no SUV
From the text: malachite green phosphate release, Michaelis-Menten fit on Rab3a-a-Syn fusion construct

Km: 174 ± 46 µM
SMILES: Nc1nc2c(ncn2[C@@H]2O[C@H](COP(=O)(O)OP(=O)(O)OP(=O)(O)O)[C@@H](O)[C@H]2O)c(=O)[nH]1 [GTP]

— paper PMC9396396, “Molecular and functional interactions of alpha-synuclein with Rab3a” (The Journal of Biological Chemistry, 2022)
